Results taken from ChEMBL document CHEMBL5120804, “Total Syntheses and Anti-inflammatory Evaluations of Pongamosides A-C, Natural Furanoflavonoid Glucosides from Fruit of Pongamia pinnata (L.) Pierre” (J Nat Prod, 2022).
Activity calls are given as the source filed them. The calls are words filed in the database; no cut-off is given here.

What was measured:
[1] = tested on: RAW264.7; assay: Antiinflammatory activity in mouse RAW264.7 assessed as inhibition of LPS-induced NO production at 25 uM pretreated for 2 hrs followed by LPS addition and measured after 24 hrs; assay type: functional, cell-based; conditions: time 26.0 hrs
[2] = tested on: RAW264.7; assay: Antiinflammatory activity in mouse RAW264.7 assessed as inhibition of LPS-induced NO production pretreated for 2 hrs followed by LPS addition and measured after 24 hrs; assay type: functional, cell-based

IC50 [2] | SMILES | Activity [1]
 | COc1cc2c(=O)cc(-c3cccc(O)c3)oc2c2ccoc12 | Active
22.2 µM | COc1c(-c2ccccc2)oc2c(cc(O)c3occc32)c1=O | Active
 | COc1c(-c2ccccc2)oc2c(cc(O[C@@H]3O[C@H](CO)[C@@H](O)[C@H](O)[C@H]3O)c3occc32)c1=O | Active
27.3 µM | O=c1cc(-c2cccc(O)c2)oc2c1ccc1occc12 | Active
